# Measured values reported in patent EP0358766A1, “METHOD OF STERILIZING PLANT ANTHERS” (VSESOJUZNY NAUCHNO-ISSLEDOVATELSKY INST. SELSKOKHOZYAISTV. …, priority 1988, dated 1989).
# Key:
# [1] = system: diploidem Roggen Chulpan; assay: Field test of gametocidal activity, diploid rye Chulpan; assay type: in vivo
# From the text: (§1) Die gametozide Aktivität der erfindungsgemäßen Sterilisationsmittel war in Feldversuchen in verschiedenen bodenklimatischen Zonen mit Teilstücken von 10 m^2 Größe in dreibis viermaliger Wiederholung festgestellt. Jedes Sterilisationsmittel wurde mindenstens 5 Jahre lang geprüft.
# (§2) Die Entwicklung der Perioden der Organogenese wird zytologisch überwacht. Die Behandlung von Pflanzen mit dem Sterilisationsmittel erfolgt am Anfang der fünften Periode der Organogenese nach Kupermann.
# (§3) Mit dem Ährenschieben verwirklicht man die Isolierung von Hauptähren und anderen Stockwerken in Pergametbeuteln. Bei Weizen und Tritikale werden Einzelisolatoren benutzt. Bei Roggen schließt man je 1 Ähre von […] verschiedenen nebeneinander befindlichen Pflanzen unter einen gemeinsamen Isolator ein. Bei Hirse wird jede Rispe getrennt isoliert. Der Sterilitätsprozentsatz (X) für Weizen, Roggen, Tritikale und Hirse wird nach der Formel [formula] ermittelt.
# (§4) Die Kornzahl in nicht isolierten Ähren von Kontrollpflanzen wird bedingt für 100 % Ansetzen bei freier Bestäubung angenommen.
# (§5) Um zuverlässige Angaben zu erhalten, verwendet man 20 bis 25 Isolatoren je Wiederholung für Weizen und Tritikale, 10 bis 15 Isolatoren jeder Wiederholung für Roggen und Hirse.
# Pflanzen von diploidem Roggen Chulpan werden in der V.Periode der Organogenese mit einer 1%igen wäßrigen Emulsion von 1,1,3-Tribrompropan, 1,1,3-Tribrom-4-chlorbutan, 1,1,2,3-Tetrabrompropan, 1,2,3-Tribrompropan, 1,2-Dibrompropan, 1,1,3-Tribrom-3-ohlorpropan, 1,2-Dibrom-3--chlorpropan, 1,3-Dibrompropan, 1,1,1,3-Tetrabromheptan, 1,1,3-Tribromheptan bzw. 1,2-Dibromheptan behandelt. Die Emulsion enthält 0,5 Masse% C12-C14-Kalziumalkylbenzolsul- fonat und 0,01 Masse% Dimethylsulfoxid. Der Verbrauch an Präparat beträgt 10 kg/ha. Die Prüfergebnisse sind in der Tabelle 11 angegeben. Die gleichen Ergebnisse sind bei der Behandlung von diploidem Roggen Chulpan in der VI. Periode der Organogenese erhalten.
# [2] = system: tetraploidem Roggen Belta; assay: Field test of gametocidal activity, tetraploid rye Belta; assay type: in vivo; conditions: period V, 1% aqueous emulsion, 6 kg/ha in 600 l water
# From the text: as §1, §2, §3, §4, §5
# Pflanzen von tetraploidem Roggen Belta werden in der V.Periode der Organogenese (nach Kupermann) mit einer 1%igen wäßrigen Emulsion von 1,1,3-Tribrompropan, 1,1,3--Tribrom-4-chlorbutan, 1,1,2,3-Tetrabrompropan, 1,2,3-Tribrompropan, 1,1,3-Tribrom-3-chlorpropan bzw. 1,2-Dibrom--3-chlorpropan behandelt.
# Die Emulsion enthält 0,5 Masse% C12-C14-Kalziumalk^yl-benzolsulfonat und 0,01 Masse% Dimethylsulfoxid. Der Verbrauch an Präparat beträgt 6 kg/ha bei 600 1 Wasserdurchsatz.Die Prüfergebnisse sind in der Tabelle 7 angegeben. Die gleichen Ergebnisse sind bei der Behandlung von tetraploidem Roggen Belta in der VI. Periode der Organogenese erhalten.
# [3] = system: diploidem Roggen Kharkovskaya 55; assay: Field test of gametocidal activity, diploid rye Kharkovskaya 55; assay type: in vivo
# From the text: as §1, §2, §3, §4, §5
# Pflanzen von diploidem Roggen Kharkovskaya 55 werden in der V. Periode der Organogenese mit einer l%igen wäßrigen Emulsion von 1,1,3-Tribrompropan, 1,2,3-Tribrompropan, 1,2-Dibrompropan, 1,1,3-Tribrom-3-chlorpropan, 1,2--Dibrom-3-chlorpropan, 1,1,1,3-Tetrabromheptan, 1,1,3-Tribromheptan bzw. 1,2-Dibromheptan behandelt. Die Emulsion enthält 0,5 Masse% C12-C14-Kalziumalkylbenzolsulfonat und 0,01 Masse% Dimethylformamid als Adjuvans. Der Verbrauch an Präparat beträgt 6 kg/ha bei 600 1 Wasserdurchsatz. Die Prüfergebnisse sind in der Tabelle 13 angegeben. Die gleichen Ergebnisse sind bei der Behandlung von diploidem Roggen Kharkovskaya 55 in der VI. Periode der Organogenese erhalten.
# [4] = system: Sommerweizens Sorte Moskowskaya 35; assay: Field test of gametocidal activity, spring wheat Moskowskaya 35; assay type: in vivo, Weizen
# From the text: as §1, §2, §3, §4, §5
# Pflanzen des Sommerweizens Sorte Moskowskaya 35 werden in der V. Periode der Organogenese (nach Kupermann) mit einer l%igen wäßrigen Emulsion von 1,1,3-Tribrompropan, […], 1,1,2,3-Tetrabrompropan, 1,2,3-Tribrompropan, 1,2-Dibrompropan, 1,1,3-Tribrom-3-chlorpropan, 1,2-Dibrom-3-chlorpropan, 1,3-Dibrompropan, 1,1,1,3-Tetrabromheptan bzw. 1,1,3-Tribromheptan behandelt. Die Emulsion enthält als Emulgierungsmittel 0,5 Masse% C12-C14-Kalzium- alkylbenzolsulfonat und als Adjuvans 0,01 Masse% Dimethylformamid. Der Verbrauch an Präparat beträgt 6 kg/ha bei 600 1 Wasserdurchsatz. Als Kontrolle dienen Pflanzen, behandelt mit dem Verdünner ohne Sterilisationsmittel.
# Die Prüfergebnisse sind in der Tabelle 2 angegeben. Die gleichen Ergebnisse sind bei der Behandlung des Sommerweizens Sorte Moskowskaya 35 in der VI.Periode der Organogenese erhalten.
# [5] = system: Winterweizens Sorte Mironowskaya 808; assay: Field test of gametocidal activity (anther sterilisation), winter wheat Mironowskaya 808; assay type: in vivo, Weizen
# From the text: as §1, §2, §3, §4, §5
# Pflanzen des Winterweizens Sorte Mironowskaya 808 werden in der V.Periode der Organogenese durch Zerstäubung der 2%igen wäßrigen Emulsion von 1,1,3-Tribrompropan mit Hilfe einer Rückenspritze behandelt.
# Als Emulgierungsmittel setzt man 0,5 Masse% C12-C14--Kalziumalkylbenzolsulphonat zu. Als Adjuvans enthält die Emulsion 0,01 Masse% Dimethylsulfoxid. Der Verbrauch an Präparat beträgt 20 kg/ha bei 1000 Liter Wasserdurchsatz. Als Kontrolle dienen Pflanzen, behandelt mit einem Verdünner ohne Sterilisationsmittel. Die Ergebnisse sind in der Tabelle 1 angegeben.
# Der ProzeB wird analog zu dem in Beispiel 1 beschriebenen durchgeführt. Als Sterilisationsmittel verwendet man eine 2%ige waßrige Emulsion von 1,1,3-Tribrom-4-chlorbutan, 1,1,2,3-Tetrabrompropan. Die Prüfergebnisse sind in der Tabelle 1 angegeben.
# Der Prozeß wird analog zu dem in Beispiel 1 beschriebenen durchgeführt, nur daß man 1%ige wäßrige Emulsion von 1,2,3-Tribrompropan, 1,2-Dibrompropan, 1,1,3-Tribrom-3--chlorpropan, 1,2-Dibrom-3-chlorpropan, 1,3-Dibrompropan, 1,1,1,3-Tetrabromheptan, 1,1,3-Tribromheptan, 1,2-Dibromheptan verwendet. Die Präparatdosis beträgt 10 kg ha. Die Prüfergebnisse sind in der Tabelle 1 angegeben. Die gleichen Ergebnisse sind bei der Behandlung des Weizens Sorte Mironowskaya 808 in der VI. Periode der Organogenese erhalten.
# [6] = system: Sommerweizens Sorte Botanicheskaya 4; assay: Field test of gametocidal activity, spring wheat Botanicheskaya 4; assay type: in vivo, Weizen; conditions: period V, 1% aqueous emulsion, 6 kg/ha in 600 l water
# From the text: as §1, §2, §3, §4, §5
# Pflanzen des Sommerweizens Sorte Botanicheskaya 4 werden in der V. Periode der Organogenese (nach Kupermann) mit einer 1%igen wäßrigen Emulsion von 1,3-Dibrompropan, 1,1,1,3-Tetrabromheptan, 1,1,2-Tribromheptan bzw. 1,2--Dibromheptan behandelt. Die Emulsion enthält 0,5 Masse% C12-C14-Kalziumalkylbenzolsulfonat und 0,01 Masse% Dimethylsulfoxid als Adjuvans. Der Verbrauch an Präparat beträgt 6 kg/ha bei 600 1 Wasserdurchsatz. Als Kontrolle dienen Pflanzen, behandelt mit dem Verdünner ohne Sterilisationsmittel.
# Die Prüfergebnisse sind in der Tabelle 4 angegeben. Die gleichen Ergebnisse sind bei der Behandlung des Sommerweizens Sorte Botanicheskaya 4 in der VI. Periode der Organogenese erhalten.
# [7] = Chulpan, period V, 1% aqueous emulsion, 10 kg/ha
# [8] = read-out: Prozentsatz der Sterilität
# [9] = Kharkovskaya 55, period V, 1% aqueous emulsion, 6 kg/ha in 600 l water
# [10] = Moskowskaya 35, period V, 1% aqueous emulsion, 6 kg/ha in 600 l water
# [11] = Mironowskaya 808, period V of organogenesis, 1% aqueous emulsion, 10 kg/ha
compound,measurement,setting,value
"ClC(Br)CC(Br)Br (stereo not drawn) [Beispiel 6, 1,1,3-Tribrom-3--chlorpropan]",Kornzahl der Ähre bei freier Bestäubung,[1]; [7],"47,7"
same,Kornzahl der Ähre im Isolator,[1]; [7],"0,6"
same,Prozentsatz des Ansetzens von Samen bei freier Bestäubung,"[1]; Chulpan, period V, 1% aqueous emulsion, 10 kg/ha, control = 100","95,2%"
same,pest or weed control at 10000 g/ha,[1]; [8],98.8%
same,Kornzahl der Ähre bei freier Bestäubung,[2],"39,8"
same,Kornzahl der Ähre im Isolator,[2],"0,1"
same,Prozentsatz der Sterilität,[2],"99,9%"
same,Prozentsatz des Ansetzens von Samen bei freier Bestäubung,[2]; control = 100,"90,0%"
same,Kornzahl der Ähre bei freier Bestäubung,[3]; [9],"41,7"
same,Kornzahl der Ähre im Isolator,[3]; [9],"0,1"
same,Prozentsatz des Ansetzens von Samen bei freier Bestäubung,"[3]; Kharkovskaya 55, period V, 1% aqueous emulsion, 6 kg/ha in 600 l water, control = 100","92,5%"
same,pest or weed control at 6000 g/ha,[3]; [8],99.8%
same,Kornzahl der Ähre bei freier Bestäubung,[4]; [10],"37,8"
same,Kornzahl der Ähre im Isolator,[4]; [10],"1,2"
same,Prozentsatz des Ansetzens von Samen bei freier Bestäubung,"[4]; Moskowskaya 35, period V, 1% aqueous emulsion, 6 kg/ha in 600 l water, control = 100","98,9%"
same,pest or weed control at 6000 g/ha,[4]; [8],96.3%
same,Kornzahl der Ähre bei freier Bestäubung,[5]; [11],"37,0"
same,Kornzahl der Ähre im Isolator,[5]; [11],"1,2"
same,Prozentsatz des Ansetzens von Samen bei freier Bestäubung,"[5]; Mironowskaya 808, period V of organogenesis, 1% aqueous emulsion, 10 kg/ha, control = 100","99,2%"
same,"pest or weed control at 1 %, 10000 g/ha",[5]; read-out: Prozentsatz der Sterilität %,96.8%
"CCCCCC(Br)C(Br)Br (stereo not drawn) [Beispiel 28, 1,1,2-Tribromheptan]",Kornzahl der Ähre bei freier Bestäubung,[6],"29,2"
same,Kornzahl der Ähre im Isolator,[6],"0,0"
same,Prozentsatz der Sterilität,[6],"100,0%"
same,Prozentsatz des Ansetzens von Samen bei freier Bestäubung,[6]; control = 100,"94,5%"
